From US20250215012A1, “IKZF2 DEGRADERS AND USES THEREOF” (REGENTS OF THE UNIVERSITY OF MICHIGAN, priority 2022, published 2025)
Read-outs that look alike come from different tables or passages of the source.

Tests used:
[1] = biological target: GST-tagged wild-type human CRBN protein (Homo sapiens (Human), UniProt Q96SW2); test: Cereblon Binding Assay (Cisbio Cereblon Binding Kit, TR-FRET); details: about 3 hours at room temperature
Method: (§1) The binding to cereblon (CRBN) is determined using the Cereblon Binding Kit (Cisbio, #64BDCRBNPEG) following the manufacturer's instruction. Briefly, serially diluted compounds are incubated with GST-tagged wild-type human CRBN protein, XL665-labelled Thalidomide and Europium Cryptate labelled GST antibody.
as §1, with “(CRBN) was” for “(CRBN) is”, “compounds were” for “compounds are”, “GST antibody at room temperature for about 3 hours.” for “GST antibody.”

IKZF2 [2] = biological target: T1, IKZF2 (Homo sapiens (Human), UniProt Q96SW2+Q9UKS7); test: IKZF2 HiBiT Assay (Jurkat-IKZF2-HiBiT cell line); type: cell-based; details: Jurkat-IKZF2-HiBiT cells, 24 hours; for DC50: read-out: HiBit assay degradation analysis DC50; for Dmax: read-out: HiBit assay degradation analysis Dmax
In short: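 IKZF2 degradation was assessed as HiBiT luminescence in Jurkat-IKZF2-HiBiT cells, using lytic detection after 24 h of compound treatment at 37 °C, 5% CO2.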

[3] = biological target: His tagged CRBN+DDB−DLS7+CXU4 (Homo sapiens (Human), UniProt Q96SW2); test: IC50 Measurements for Binding to CRBN/DDBI (HTRF); details: Cy5-labeled Thalidomide probe, one hour incubation
IKZF2 [4] = biological target: T1, IKZF2; test: IKZF2 FACS Assay (Jurkat cells); type: cell-based; details: read-out: IKZF2 FACS degradation Dmax
Method: (§2) Jurkat cells (ATCC, Cat […]) were cultured in RPMI1640+10% FBS+1% P/S. Cells were treated at desired compound concentrations (0.05 to 10 μM) and DMSO as vehicle control for 24 hrs.

IKZF2 [5] = biological target: IKZF2 (Homo sapiens (Human), UniProt Q9UKS7); test: IKZF2 FACS Assay (Jurkat cells); type: cell-based; details: Jurkat cells, 24 hrs; read-out: IKZF2 FACS degradation DC50
Method: as §2

IKZF2 [6] = biological target: T1, IKZF2; test: IKZF2 HiBit Assay (HEK293T Flp-in-HiBiT cells); type: cell-based; details: for DC50: read-out: IKZF2 HiBit degradation DC50; for Dmax: HEK-293T, read-out: IKZF2 HiBit degradation Dmax
In short: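 HEK293T Flp-in cells carrying CRISPR-inserted N-terminal HiBiT tag at the endogenous IKZF2 locus were treated with an 11-point, 3-fold dilution from 1 mM (stock) for 6 hrs; final DMSO 0.1%. HiBiT luminescence was detected after lysis with LgBiT/substrate reagent. DMSO-normalized curves gave 50% degradation concentration and Dmax.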

IKZF1 = IKZF1 (Homo sapiens (Human), UniProt Q13422+Q96SW2); test: IKZF1 HiBit Assay (HEK293T Flp-in-HiBiT-IKZF1 stable cell line); type: cell-based; details: for DC50: read-out: IKZF1 HiBit degradation DC50; for Dmax: HEK-293T, read-out: IKZF1 HiBit degradation Dmax
In short: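 HEK293T Flp-in cells with CRISPR-inserted N-terminal HiBiT tag treated 6 h with 11-point threefold dilutions (0.1% DMSO). Nano-Glo HiBiT lytic luminescence normalised to DMSO gave the 50%-degradation concentration; Dmax taken as the luminescence range from highest to lowest concentration.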

[7] = HEK293T Flp-in-HiBiT cells, 6 hrs
[8] = HEK293T Flp-in-HiBiT-IKZF1 cells, 6 hrs

Chain of His tagged CRBN+DDB−DLS7+CXU4 (Q96SW2 whole entry): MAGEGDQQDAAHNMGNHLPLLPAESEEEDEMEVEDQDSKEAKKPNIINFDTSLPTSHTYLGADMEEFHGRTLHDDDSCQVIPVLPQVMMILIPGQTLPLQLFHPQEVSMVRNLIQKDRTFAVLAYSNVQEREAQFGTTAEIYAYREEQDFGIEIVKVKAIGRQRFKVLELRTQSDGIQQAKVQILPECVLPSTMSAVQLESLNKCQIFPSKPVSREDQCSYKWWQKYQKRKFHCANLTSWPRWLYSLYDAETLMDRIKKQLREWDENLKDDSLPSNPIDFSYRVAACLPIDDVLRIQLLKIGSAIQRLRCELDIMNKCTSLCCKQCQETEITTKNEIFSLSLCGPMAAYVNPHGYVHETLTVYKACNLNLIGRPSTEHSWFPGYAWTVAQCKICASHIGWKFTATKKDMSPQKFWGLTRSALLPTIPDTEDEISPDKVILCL
Chain of His tagged CRBN+DDB−DLS7+CXU4 (Q16531 whole entry partner): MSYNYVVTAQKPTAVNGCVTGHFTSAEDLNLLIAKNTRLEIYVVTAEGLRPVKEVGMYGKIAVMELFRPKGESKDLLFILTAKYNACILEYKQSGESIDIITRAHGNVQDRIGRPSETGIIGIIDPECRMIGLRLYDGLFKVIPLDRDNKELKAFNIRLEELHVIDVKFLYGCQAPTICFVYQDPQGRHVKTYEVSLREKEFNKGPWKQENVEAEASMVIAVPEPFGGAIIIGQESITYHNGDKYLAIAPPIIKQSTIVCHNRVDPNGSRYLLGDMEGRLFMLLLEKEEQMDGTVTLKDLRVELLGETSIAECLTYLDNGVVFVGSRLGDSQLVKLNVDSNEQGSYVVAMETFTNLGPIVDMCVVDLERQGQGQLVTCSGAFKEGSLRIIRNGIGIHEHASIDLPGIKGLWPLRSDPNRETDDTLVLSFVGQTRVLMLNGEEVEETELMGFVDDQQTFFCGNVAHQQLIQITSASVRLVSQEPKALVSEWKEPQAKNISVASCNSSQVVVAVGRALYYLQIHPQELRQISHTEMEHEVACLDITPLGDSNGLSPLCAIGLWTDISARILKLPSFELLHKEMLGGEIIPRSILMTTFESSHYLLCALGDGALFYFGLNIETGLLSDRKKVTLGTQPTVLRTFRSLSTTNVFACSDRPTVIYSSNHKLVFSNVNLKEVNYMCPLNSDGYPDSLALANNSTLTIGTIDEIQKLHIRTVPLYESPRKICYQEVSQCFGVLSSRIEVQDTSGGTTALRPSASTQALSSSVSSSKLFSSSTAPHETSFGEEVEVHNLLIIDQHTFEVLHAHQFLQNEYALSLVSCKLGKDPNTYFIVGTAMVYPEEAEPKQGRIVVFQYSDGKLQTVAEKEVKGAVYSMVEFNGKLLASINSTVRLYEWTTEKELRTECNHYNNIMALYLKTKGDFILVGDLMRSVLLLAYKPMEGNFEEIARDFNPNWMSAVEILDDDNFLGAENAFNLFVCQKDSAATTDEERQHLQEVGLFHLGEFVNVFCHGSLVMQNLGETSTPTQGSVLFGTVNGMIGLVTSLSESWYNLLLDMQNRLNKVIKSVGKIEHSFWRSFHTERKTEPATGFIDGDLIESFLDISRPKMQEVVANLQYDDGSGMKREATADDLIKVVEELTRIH
Chain of GST-tagged wild-type human CRBN protein (Q96SW2 whole entry): as the sequence (Q96SW2 whole entry) above
T1 sequence (Q9UKS7 whole entry): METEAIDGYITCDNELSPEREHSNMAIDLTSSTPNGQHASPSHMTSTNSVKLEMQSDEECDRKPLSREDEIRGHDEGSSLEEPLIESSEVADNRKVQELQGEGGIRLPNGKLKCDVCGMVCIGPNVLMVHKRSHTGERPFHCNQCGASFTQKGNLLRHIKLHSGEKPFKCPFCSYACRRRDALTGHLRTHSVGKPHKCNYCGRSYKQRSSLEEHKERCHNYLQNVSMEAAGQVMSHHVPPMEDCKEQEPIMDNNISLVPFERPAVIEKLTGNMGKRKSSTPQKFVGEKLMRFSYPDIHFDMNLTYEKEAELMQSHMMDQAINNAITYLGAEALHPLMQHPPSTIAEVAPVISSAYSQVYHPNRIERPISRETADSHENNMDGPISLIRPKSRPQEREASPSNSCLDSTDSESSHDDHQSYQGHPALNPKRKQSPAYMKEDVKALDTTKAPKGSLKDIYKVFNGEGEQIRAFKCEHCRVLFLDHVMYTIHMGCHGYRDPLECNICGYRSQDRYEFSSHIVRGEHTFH
T1 sequence (Q96SW2 whole entry): as the sequence (Q96SW2 whole entry) above
T1 sequence (Q16531 whole entry partner): as the sequence (Q16531 whole entry partner) above
Chain of IKZF2 (Homo sapiens (Human), UniProt Q9UKS7) (Q9UKS7 whole entry): as the sequence (Q9UKS7 whole entry) above
Chain of IKZF2 (Homo sapiens (Human), UniProt Q9UKS7) (Q96SW2 whole entry, further chain): as the sequence (Q96SW2 whole entry) above
Chain of IKZF2 (Homo sapiens (Human), UniProt Q9UKS7) (Q16531 whole entry partner): as the sequence (Q16531 whole entry partner) above
Chain of IKZF1 (Q13422 whole entry): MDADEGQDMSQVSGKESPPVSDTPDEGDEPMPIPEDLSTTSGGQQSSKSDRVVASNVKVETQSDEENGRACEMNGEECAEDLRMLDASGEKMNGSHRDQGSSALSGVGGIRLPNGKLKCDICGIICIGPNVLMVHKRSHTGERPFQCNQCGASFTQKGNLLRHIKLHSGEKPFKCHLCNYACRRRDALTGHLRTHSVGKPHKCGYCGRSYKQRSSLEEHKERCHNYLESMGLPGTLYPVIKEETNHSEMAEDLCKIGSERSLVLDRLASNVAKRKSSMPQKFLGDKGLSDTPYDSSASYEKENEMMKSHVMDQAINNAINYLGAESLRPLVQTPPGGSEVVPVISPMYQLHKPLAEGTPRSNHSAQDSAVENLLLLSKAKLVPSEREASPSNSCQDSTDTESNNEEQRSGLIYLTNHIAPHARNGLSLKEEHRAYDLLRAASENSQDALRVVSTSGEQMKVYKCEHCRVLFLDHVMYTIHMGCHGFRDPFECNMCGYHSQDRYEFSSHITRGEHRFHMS
Chain of IKZF1 (Q96SW2 whole entry): as the sequence (Q96SW2 whole entry) above
Chain of IKZF1 (Q16531 whole entry partner): as the sequence (Q16531 whole entry partner) above

Row | Structure (SMILES) | IC50 [1] | DC50 (IKZF2 [2]) | Dmax (IKZF2 [2]) | IC50 [3] | Dmax (IKZF2 [4]; Jurkat) | DC50 (IKZF2 [5]) | DC50 (IKZF2 [6]; [7]) | Dmax (IKZF2 [6]) | DC50 (IKZF1; [8]) | Dmax (IKZF1) | Dmax (IKZF2 [4]; Jurkat cells, 24 hrs) | Dmax (IKZF2 [6]; [7]) | Dmax (IKZF1; [8])
1 | O=C1CCC(N2Cc3c(ccc4c3OCC43CCN(Cc4cccc(-c5ccncc5)c4)CC3)C2=O)C(=O)N1 (stereo not drawn) [Compound A133, 3-(6-oxo-1′-(3-(pyridin-4-yl)benzyl)-6,8-dihydro-2H,7H-spiro[furo[2,3-e]isoindole-3,4′-piperidin]-7-yl)piperidine-2,6-dione] | 100 to 1000 nM | < 50 nM | 60 to 80% |  |  |  |  |  |  |  |  |  | 
2 | Cn1ccc(-c2cccc(CN3CCC4(CC3)COc3c4ccc4c3CN(C3CCC(=O)NC3=O)C4=O)c2)n1 (stereo not drawn) [Compound A134, 3-(1′-(3-(1-methyl-1H-pyrazol-3-yl)benzyl)-6-oxo-6,8-dihydro-2H,7H-spiro[furo[2,3-e]isoindole-3,4′-piperidin]-7-yl)piperidine-2,6-dione] | 100 to 1000 nM | < 50 nM | 60 to 80% |  |  |  |  |  |  |  |  |  | 
3 | CCn1cc(-c2cccc(CN3CCC4(CC3)COc3c4ccc4c3CN(C3CCC(=O)NC3=O)C4=O)c2)cn1 (stereo not drawn) [Compound A145, 3-(1′-(3-(1-ethyl-1H-pyrazol-4-yl)benzyl)-6-oxo-6,8-dihydro-2H,7H-spiro[furo[2,3-e]isoindole-3,4′-piperidin]-7-yl)piperidine-2,6-dione] | 10 to 100 nM | < 50 nM | 60 to 80% |  |  |  |  |  |  |  |  |  | 
4 | O=C1CCC(N2Cc3c(ccc4c3OCC43CCN(Cc4cccc(-c5cc[nH]n5)c4)CC3)C2=O)C(=O)N1 (stereo not drawn) [Compound A160, 3-(1′-(3-(1H-pyrazol-3-yl)benzyl)-6-oxo-6,8-dihydro-2H,7H-spiro[furo[2,3-e]isoindole-3,4′-piperidin]-7-yl)piperidine-2,6-dione] | 10 to 100 nM | < 50 nM | 60 to 80% |  |  |  |  |  |  |  |  |  | 
5 | O=C1CCC(N2Cc3c(ccc4c3OCC43CCN(Cc4cccc(-c5cnn(C6COC6)c5)c4)CC3)C2=O)C(=O)N1 (stereo not drawn) [Compound A161, 3-(1′-(3-(1-(oxetan-3-yl)-1H-pyrazol-4-yl)benzyl)-6-oxo-6,8-dihydro-2H,7H-spiro[furo[2,3-e]isoindole-3,4′-piperidin]-7-yl)piperidine-2,6-dione] | 10 to 100 nM | < 50 nM | 60 to 80% |  |  |  |  |  |  |  |  |  | 
6 | Cn1cc(-c2cccc(CN3CCC4(CC3)COc3c4ccc4c3CN([C@H]3CCC(=O)NC3=O)C4=O)c2)cn1 [Compound A170, (S)-3-(1′-(3-(1-methyl-1H-pyrazol-4-yl)benzyl)-6-oxo-6,8-dihydro-2H,7H-spiro[furo[2,3-e]isoindole-3,4′-piperidin]-7-yl)piperidine-2,6-dione] | 100 to 1000 nM | < 50 nM | 60 to 80% |  |  |  |  |  |  |  |  |  | 
7 | Cn1cc(-c2cccc(CN3CCC4(CC3)COc3c4ccc4c3CN([C@@H]3CCC(=O)NC3=O)C4=O)c2)cn1 [Compound B14, (R)-3-(1′-(3-(1-methyl-1H-pyrazol-4-yl)benzyl)-6-oxo-6,8-dihydro-2H,7H-spiro[furo[2,3-e]isoindole-3,4′-piperidin]-7-yl)piperidine-2,6-dione] |  |  |  | 1000 to 5000 nM | 40 to 60% | > 10 nM | 1 to 10 nM | > 80% | > 1000 nM | < 20% |  |  | 
8 | Cn1cc(-c2cccc(CN3CCC4(COc5c4ccc4c5CN(C5CCC(=O)NC5=O)C4=O)C(F)(F)C3)c2)cn1 (stereo not drawn) [Compound B26, 3-(3′,3′-difluoro-1′-(3-(1-methyl-1H-pyrazol-4-yl)benzyl)-6-oxo-6,8-dihydro-2H,7H-spiro[furo[2,3-e]isoindole-3,4′-piperidin]-7-yl)piperidine-2,6-dione] |  |  |  |  |  | < 10 nM | 1 to 10 nM |  | > 1000 nM |  | > 60% | > 80% | < 20%
9 | N#Cc1ccc(-n2cc(CN3CCC4(COc5c4ccc4c5CN([C@H]5CCC(=O)NC5=O)C4=O)C(F)(F)C3)cn2)cc1 (stereo partly drawn) [Compound B27, 4-(4-((7-((S)-2,6-dioxopiperidin-3-yl)-3′,3′-difluoro-6-oxo-7,8-dihydro-2H,6H-spiro[furo[2,3-e]isoindole-3,4′-piperidin]-1′-yl)methyl)-1H-pyrazol-1-yl)benzonitrile] |  |  |  |  |  | > 10 nM | 1 to 10 nM |  | > 1000 nM |  | < 40% | 60 to 80% | < 20%
10 | O=C1CC[C@H](N2Cc3c(ccc4c3OCC43CCN(Cc4cccc(-c5cnn(C6COC6)c5)c4)CC3(F)F)C2=O)C(=O)N1 (stereo partly drawn) [Compound B32, (3S)-3-(3′,3′-difluoro-1′-(3-(1-(oxetan-3-yl)-1H-pyrazol-4-yl)benzyl)-6-oxo-6,8-dihydro-2H,7H-spiro[furo[2,3-e]isoindole-3,4′-piperidin]-7-yl)piperidine-2,6-dione] |  |  |  | 100 to 500 nM |  | < 10 nM | < 1 nM |  | > 1000 nM |  | 40 to 60% | 60 to 80% | < 20%
11 | O=C1CC[C@H](N2Cc3c(ccc4c3OCC43CCN(Cc4cnn(CC5CCOCC5)c4)CC3(F)F)C2=O)C(=O)N1 (stereo partly drawn) [Compound B46, (3S)-3-(3′,3′-difluoro-6-oxo-1′-((1-((tetrahydro-2H-pyran-4-yl)methyl)-1H-pyrazol-4-yl)methyl)-6,8-dihydro-2H,7H-spiro[furo[2,3-e]isoindole-3,4′-piperidin]-7-yl)piperidine-2,6-dione] |  |  |  |  |  | < 10 nM | 1 to 10 nM |  | > 1000 nM |  | 40 to 60% | 60 to 80% | < 20%
12 | Cn1cc(-c2cccc(CN3CC[C@]4(COc5c4ccc4c5CN([C@H]5CCC(=O)NC5=O)C4=O)C(F)(F)C3)c2)cn1 [Compound B51, (S)-3-((S)-3′,3′-difluoro-1′-(3-(1-methyl-1H-pyrazol-4-yl)benzyl)-6-oxo-6,8-dihydro-2H,7H-spiro[furo[2,3-e]isoindole-3,4′-piperidin]-7-yl) piperidine-2,6-dione] |  |  |  | < 100 nM |  | < 10 nM | < 1 nM |  | > 1000 nM |  | > 60% | 60 to 80% | < 20%
13 | O=C1CC[C@H](N2Cc3c(ccc4c3OC[C@]43CCN(Cc4cccc(-c5cnn(C6COC6)c5)c4)CC3(F)F)C2=O)C(=O)N1 [Compound B53, (S)-3-((S)-3′,3′-difluoro-1′-(3-(1-(oxetan-3-yl)-1H-pyrazol-4-yl)benzyl)-6-oxo-6,8-dihydro-2H,7H-spiro[furo[2,3-e]isoindole-3,4′-piperidin]-7-yl)piperidine-2,6-dione] |  |  |  |  |  | < 10 nM | < 1 nM |  | > 1000 nM |  | 40 to 60% | > 80% | < 20%
14 | Cn1cc(-c2cccc(CN3CCC4(CC3)COc3c5c(cc(F)c34)C(=O)N([C@H]3CCC(=O)NC3=O)C5)c2)cn1 [Compound B55, (S)-3-(4-fluoro-1′-(3-(1-methyl-1H-pyrazol-4-yl)benzyl)-6-oxo-6,8-dihydro-2H,7H-spiro[furo[2,3-e]isoindole-3,4′-piperidin]-7-yl)piperidine-2,6-dione] |  |  |  |  |  | < 10 nM | < 1 nM |  | > 1000 nM |  | 40 to 60% | > 80% | < 20%
